Measurements taken from the supplement of paper PMC10307832.

Experiments:
Assay in all cases: relative viability (nuclei count vs DMSO), 5 days (fraction); higher = more cells survive
Crenolanib + Luminespib = compound: CC1(COc2ccc3c(c2)ncn3-c2ccc3cccc(N4CCC(N)CC4)c3n2)COC1 [Crenolanib] + CCNC(=O)c1noc(-c2cc(C(C)C)c(O)cc2O)c1-c1ccc(CN2CCOCC2)cc1 [Luminespib] (partner 0.01 µM)
Summary of the method: (§1)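 Cells from lung cancer lines were seeded into 1536-well plates and, one day later, dosed by pin tool. Treatments were either a single drug or a fixed dose of an anchor drug with five library-drug doses (not always all listed) in √10 steps. After 5 days, nuclei were stained in a one-step fixation (final 0.05% Triton X-100, 1% formaldehyde, 1 ug/ml Hoechst) and counted on 4× images, and relative viability is the treated-to-vehicle nuclei ratio, as the median of duplicate plates.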

Crenolanib + Pictilisib = compound: CC1(COc2ccc3c(c2)ncn3-c2ccc3cccc(N4CCC(N)CC4)c3n2)COC1 [Crenolanib] + CS(=O)(=O)N1CCN(Cc2cc3nc(-c4cccc5[nH]ncc45)nc(N4CCOCC4)c3s2)CC1 [Pictilisib] (partner 1 µM)
Summary of the method: as §1

Tivantinib + OSI-027 = compound: O=C1NC(=O)[C@@H](c2cn3c4c(cccc24)CCC3)[C@@H]1c1c[nH]c2ccccc12 [Tivantinib] + COc1cccc2cc(-c3nc([C@H]4CC[C@H](C(=O)O)CC4)n4ncnc(N)c34)[nH]c12 [OSI-027] (partner 0.5 µM)
Summary of the method: as §1

Tivantinib + AZD7762 = compound: O=C1NC(=O)[C@@H](c2cn3c4c(cccc24)CCC3)[C@@H]1c1c[nH]c2ccccc12 [Tivantinib] + NC(=O)Nc1cc(-c2cccc(F)c2)sc1C(=O)N[C@H]1CCCNC1 [AZD7762] (partner 0.2 µM)
Summary of the method: as §1

| Cell Line | relative viability (Crenolanib + Luminespib; first compound 0.01 µM) | relative viability (Crenolanib + Luminespib; first compound 0.03162 µM) | relative viability (Crenolanib + Luminespib; first compound 0.1 µM) | relative viability (Crenolanib + Luminespib; first compound 0.3162 µM) | relative viability (Crenolanib + Luminespib; first compound 1 µM) | relative viability (Crenolanib + Pictilisib; first compound 0.01 µM) | relative viability (Crenolanib + Pictilisib; first compound 0.03162 µM) | relative viability (Crenolanib + Pictilisib; first compound 0.1 µM) | relative viability (Crenolanib + Pictilisib; first compound 0.3162 µM) | relative viability (Crenolanib + Pictilisib; first compound 1 µM) | relative viability (Tivantinib + OSI-027; first compound 0.01 µM) | relative viability (Tivantinib + OSI-027; first compound 0.03162 µM) | relative viability (Tivantinib + OSI-027; first compound 0.1 µM) | relative viability (Tivantinib + OSI-027; first compound 0.3162 µM) | relative viability (Tivantinib + AZD7762; first compound 0.01 µM) | relative viability (Tivantinib + AZD7762; first compound 0.03162 µM) | relative viability (Tivantinib + AZD7762; first compound 0.1 µM) | relative viability (Tivantinib + AZD7762; first compound 0.3162 µM) |
| --- | --- | --- | --- | --- | --- | --- | --- | --- | --- | --- | --- | --- | --- | --- | --- | --- | --- | --- |
| HOP-62 | 0.944 | 0.89 | 0.859 | 0.93 | 0.813 | 0.724 | 0.946 | 0.602 | 0.768 | 0.517 | 0.831 | 0.566 | 0.876 | 0.887 | 0.503 | 0.62 | 0.515 | 0.667 |
| IA-LM | – | – | – | – | – | 0.331 | 0.305 | 0.314 | 0.64 | 0.522 | – | – | – | – | – | – | – | – |
| LC-2-ad | 1.07 | 0.929 | 0.955 | 0.963 | 0.756 | 0.5 | 0.446 | 0.434 | 0.465 | 0.375 | 0.851 | 0.738 | 0.816 | 0.573 | 0.776 | 0.681 | 0.817 | 0.758 |
| LCLC-97TM1 | 0.777 | 0.749 | 0.792 | 0.844 | 0.753 | 0.162 | 0.245 | 0.176 | 0.245 | 0.118 | 0.44 | 0.473 | 0.428 | 0.36 | 0.268 | 0.311 | 0.197 | 0.25 |
| LCLC-103H | 1.02 | 0.922 | 0.878 | 1.06 | 0.863 | 0.64 | 0.58 | 0.596 | 0.58 | 0.565 | 0.471 | 0.425 | 0.41 | 0.414 | 0.808 | 0.702 | 0.684 | 0.793 |
| LK-2 | 0.169 | 0.18 | 0.16 | 0.17 | 0.199 | 0.586 | 0.461 | 0.662 | 0.473 | 0.615 | 0.225 | – | 0.219 | 0.243 | 0.447 | 0.214 | 0.288 | 0.363 |
| LOU-NH91 | 0.326 | 0.304 | 0.33 | 0.303 | 0.317 | 0.595 | 0.525 | 0.473 | 0.56 | 0.53 | 0.657 | 0.709 | 0.729 | 0.465 | 0.784 | 0.719 | 0.702 | 0.738 |
| NCI-H520 | 0.19 | 0.269 | 0.279 | 0.216 | 0.221 | 0.267 | 0.324 | 0.326 | 0.295 | 0.301 | 0.318 | 0.221 | 0.261 | 0.261 | – | – | – | – |
| NCI-H522 | 1.01 | 0.993 | 1.15 | 1.17 | 1.21 | – | – | – | – | – | 0.749 | 0.648 | 0.624 | 0.617 | 0.829 | 0.812 | 0.864 | 0.612 |
| NCI-H661 | 0.939 | 0.88 | 0.893 | 0.958 | 0.959 | 0.476 | 0.336 | 0.368 | 0.378 | 0.414 | 0.72 | 0.665 | 0.755 | 0.396 | – | – | – | – |
| NCI-H1299 | – | – | – | – | – | 0.793 | 0.825 | 0.657 | 0.878 | 0.795 | – | – | – | – | – | – | – | – |
| NCI-H1563 | 0.552 | 0.499 | 0.531 | 0.517 | 0.478 | 0.608 | 0.633 | 0.693 | 0.652 | 0.59 | 0.78 | 0.756 | 0.718 | 0.745 | – | – | – | – |
| NCI-H1623 | 0.582 | 0.41 | 0.457 | 0.633 | 0.357 | – | – | – | – | – | 0.434 | 0.442 | 0.487 | – | – | – | – | – |
| NCI-H1648 | – | – | – | – | – | – | – | – | – | – | 0.254 | 0.259 | 0.238 | – | – | 0.61 | 0.767 | 0.479 |
| NCI-H1650 | 0.193 | 0.231 | 0.203 | 0.213 | 0.178 | 0.731 | 0.68 | 0.583 | 0.472 | 0.327 | 0.681 | 0.535 | 0.634 | 0.532 | – | – | – | – |
| NCI-H1703 | – | – | – | – | – | 0.237 | 0.238 | 0.212 | 0.209 | 0.228 | – | – | – | – | 0.159 | 0.152 | 0.114 | 0.124 |
| NCI-H2009 | 1.04 | 1.08 | 1.06 | 1.11 | 0.982 | 0.854 | 0.803 | 0.738 | 0.708 | 0.532 | 0.677 | 0.529 | 0.61 | 0.713 | – | – | – | – |
| NCI-H2023 | 0.839 | 0.704 | 0.639 | 1 | 0.453 | 0.264 | 0.288 | 0.233 | 0.278 | 0.205 | 0.372 | 0.363 | 0.356 | 0.341 | – | – | – | – |
| NCI-H2228 | 0.137 | 0.15 | 0.105 | 0.193 | 0.228 | 0.372 | 0.397 | 0.272 | 0.491 | 0.361 | – | 0.548 | 0.541 | 0.234 | – | – | – | – |
| NCI-H2342 | 0.822 | 0.701 | 0.779 | 0.77 | 0.807 | – | – | – | – | – | 0.63 | 0.597 | 0.585 | 0.532 | 0.505 | 0.515 | 0.432 | 0.39 |
| SK-LU-1 | 0.205 | 0.246 | 0.217 | 0.208 | 0.211 | 0.609 | 0.494 | 0.432 | 0.62 | 0.611 | 0.364 | 0.342 | 0.381 | 0.363 | – | – | – | – |
| SK-MES-1 | 0.827 | 0.728 | 0.699 | 0.83 | 0.57 | 0.337 | 0.33 | 0.375 | 0.385 | 0.377 | 0.668 | 0.435 | 0.554 | 0.482 | – | – | – | – |
| SW 900 | 0.167 | 0.177 | 0.172 | 0.218 | 0.196 | – | – | – | – | – | 0.605 | 0.443 | 0.583 | 0.533 | 0.682 | 0.464 | 0.5 | 0.496 |
| SW 1573 | 0.833 | 0.283 | 0.152 | 0.54 | 0.16 | 0.368 | 0.521 | 0.451 | 0.656 | 0.598 | 0.636 | 0.612 | 0.562 | 0.556 | – | – | – | – |
